Measurements reported in patent US20210246202A1, “TREATMENTS RELATED TO GH/IGF-1 AXIS INHIBITION” (UNIVERSITY OF SOUTHERN CALIFORNIA, priority 2010, published 2021).
Each block holds one molecule with its values, some of them ahead of it.

Experiments:
[1] = Body weight of mice immunized with huGH; type: in vivo, mouse; conditions: 20 male and 20 female mice immunized with huGH
Source text: FIG. 13A provides a plot of body weight of mice immunized with human Growth Hormone (huGH) (20 male and 20 female) versus time.
This figure provides a plot of body weight of mice immunized with human Growth Hormone (huGH) (20 male and 20 female) versus time.

[2] = system: chemotherapy side effects; assay: Short term immunization with human GH before cyclophosphamide treatment (body weight, complete blood count); type: in vivo, mouse; conditions: cyclophosphamide i.p., 300 mg/kg, body weight and CBC 7-days after CP
Experimental: FIG. 14A provides plots of the body weight of mice with short term immunization (STI) with human GH (half-filled arrowheads) after cyclophosphamide treatment (cyclophosphamide (CP) i.p., 300 mg/kg, indicated by the solid arrowhead)(Sham means treated with buffer and no chemo);
FIG. 14B provides a histogram of the complete blood count (CBC) 7-days after CP treatment (Data are presented as percentage of pre-chemo value);
FIG. 14A provides plots of the body weight of mice with short term immunization (STI) with human GH (half-filled arrowheads) after cyclophosphamide treatment (cyclophosphamide (CP) i.p., 300 mg/kg, indicated by solid arrowheads). FIG. 14B provides a histogram of the complete blood count (CBC) 7-days after CP treatment (Data are presented as percentage of pre-chemo value).

[3] = molecular target: human GH (Homo sapiens, UniProt P01241); assay: Slot blot of anti-huGH activity in serum from mice immunized with huGH; type: in vivo, mouse; conditions: slot blot on immobilized human GH
human GH, sequence (P01241 27-217): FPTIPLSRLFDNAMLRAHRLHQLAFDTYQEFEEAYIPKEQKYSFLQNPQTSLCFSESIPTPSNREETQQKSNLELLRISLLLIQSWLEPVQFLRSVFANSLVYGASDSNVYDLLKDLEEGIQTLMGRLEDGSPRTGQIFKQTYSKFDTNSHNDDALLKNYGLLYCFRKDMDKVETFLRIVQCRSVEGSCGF

[4] = system: pancreatic carcinoma cells; conditions: Mol Cancer Ther May 2009 8:1095-1105; cited from earlier work
[5] = system: primary glial cells; assay: 24 hour LDH release from primary glial cells treated with IGFBP1; type: cell-based
Experimental: FIG. 17 provides a plot of the 24 hour lactate dehydrogenase (LDH) release from the treatment of primary glial cells with the IGF-I inhibitor insulin-like growth factor-binding protein 1 (IGFBP1) and with insulin-like growth factor-binding protein 2 (IGFBP2). […] IGFBP1 is a strong IGF-I inhibitor. Other IGFBPs can even increase IGF-I signaling.

immunized mice showing strong anti-huGH activity in serum [3]: 34 out of 40
Molecule: human Growth Hormone [huGH]
body weight of immunized mice [1]: Lower body weight | effect against chemotherapy side effects [2]: protective effect against chemotherapy side effects

Molecule: AMG 479: a fully human anti-insulin-like growth factor receptor type I monoclonal antibody
effect on growth and survival of pancreatic carcinoma cells [4]: inhibits the growth and survival of pancreatic carcinoma cells

B1: insulin-like growth factor-binding protein 1 (protein, UniProt P08833 26-259, looked up)
Insulin-like growth …: APWQCAPCSAEKLALCPPVSASCSEVTRSAGCGCCPMCALPLGAACGVATARCARGLSCRALPGEQQPLHALTRGQGACVQESDASAPHAAEAGSPESPESTEITEEELLDNFHLMAPSEEDHSILWDAISTYDGSKALHVTNIKKWKEPCRIELYRVVESLAKAQETSGEEISKFYLPNCNKNGFYHSRQCETSMDGEAGLCWCVYPWNGKRIPGSPEIRGDPNCQIYFNVQN
protection against oxidative damage (LDH release) [5]: protects them against oxidative damage
